According to patent publication US20060030616A1, “Anhydride modified cantharidin analogues useful in the treatment of cancer” (priority 1998, published 2006):

Key:
nine cancer cell lines = assay: MTT cytotoxicity assay, 72 h, ranges over cell line panel; type: cell-based; conditions: nine cell lines, read-out: IC50 range across all cell lines tested
Summary of the method: (§1)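 Exponentially growing cells (24 h after plating; L1210 1000 cells/well, remaining lines 2000-25000 cells/well) receive phosphatase inhibitor, tested in triplicate, for 72 h. Growth is scored by MTT at 540 nm, and IC50 is derived from the resulting dose-response curve.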

L1210 cells = assay: Cell cycle analysis, flow cytometry of propidium iodide stained cells; type: cell-based, murine
Protocol: (§2) The cells are fixed in 70% ethanol and stored at −20° C. until analysis is performed (1-2 weeks). After fixing, the cells are pelleted and incubated in PBS containing propidium iodide ([…]) and RNase A (200 mg/ml) for at least 30 min at room temperature. The samples (2×10^4 events) are analysed using a Becton Dickson FACScan, fluorescence is collected in fluorescence detector 2 (FL2), filter 575/30 nm band pass. Cell cycle distribution is assessed using Cell Quest software (Becton Dickson).
(§3) The ability of the protein phosphatase inhibitors to abrogate the G1 or G2 checkpoint of the cell cycle may be determined by cell cycle analysis using flow cytometry. Briefly, asynchronous cell cultures are harvested 18 h after 6 Gy irradiation and/or 12 h incubation with the protein phosphatase inhibitor. Depending upon the p53 status of the cell line, radiation treatment alone will induce arrest in either G1 and/or G2 phase of the cell cycle.
(§4) Data shown in Table 2 and FIG. 4 show the cell cycle response of L1210, HL60, HT29 and HCT116 cells to cantharidin and the new cantharidin analogues MK-2 and MK-4 after 12 h exposure. In summary, cantharidin and MK-2 produced a similar response and induced G2 arrest in all four cell lines tested. […] HL60 and HCT116 cells. […] The magnitude of the cell cycle arrest induced by these drugs directly correlated with their cytotoxicity in the respective cell lines. […] The cytotoxicity of the […]

HT29 cells [1] = assay: as above; type: cell-based, human; conditions: 12 h
Protocol: as §2, §3, §4

HCT116 cells [2] = assay: as above; type: cell-based, human
Protocol: as §2, §3, §4

HL60 cells = assay: MTT cytotoxicity assay, 72 h; type: cell-based, human; conditions: HL60, p53 nul; read-out: IC50 (mean ± SE) after 72 h continuous exposure
Summary of the method: as §1

HT29 cells [3] = assay: MTT cytotoxicity assay, 72 h; type: cell-based, human; conditions: HT29, p53 mt; read-out: IC50 (mean ± SE) after 72 h continuous exposure
Summary of the method: as §1

WiDr cells = assay: MTT cytotoxicity assay, 72 h; type: cell-based, human; conditions: p53 mt, read-out: IC50 (mean ± SE) after 72 h continuous exposure
Summary of the method: as §1

143B cells = assay: MTT cytotoxicity assay, 72 h; type: cell-based, human; conditions: p53 mt, read-out: IC50 (mean ± SE) after 72 h continuous exposure
Summary of the method: as §1

HCT116 cells [4] = assay: MTT cytotoxicity assay, 72 h; type: cell-based, human; conditions: HCT116, p53 wt; read-out: IC50 (mean ± SE) after 72 h continuous exposure
Summary of the method: as §1

ADDP cells = assay: MTT cytotoxicity assay, 72 h; type: cell-based, human; conditions: p53 mt, read-out: IC50 (mean ± SE) after 72 h continuous exposure
Summary of the method: as §1

SW480 cells = assay: MTT cytotoxicity assay, 72 h; type: cell-based, human; conditions: SW480, p53 mt; read-out: IC50 (mean ± SE) after 72 h continuous exposure
Summary of the method: as §1

In the case of `O=C1OC(=O)C2C3C=CC(O3)C12` (centres unmarked) [MK-2], the IC50 (nine cancer cell lines) is reported as 157 to 248 µM, the “Cell Cycle Distribution, G1” value (L1210 cells; L1210, 50 μM, 12 h) is reported as 42.7 percentage of total and the “Cell Cycle Distribution, G2 + M” value (L1210 cells; L1210, 50 μM, 12 h) is reported as 31.7 percentage of total. For the same molecule, the “Cell Cycle Distribution, S” value (L1210 cells; L1210, 50 μM, 12 h) was 26.2 percentage of total, the “Cell Cycle Distribution, sub G1” value (L1210 cells; L1210, 50 μM, 12 h) was 0.3 percentage of total and the “Cell Cycle Distribution, G1” value (L1210 cells; L1210, 100 μM, 12 h) was 45.2 percentage of total. The “Cell Cycle Distribution, G2 + M” value (L1210 cells; L1210, 100 μM, 12 h) was 32.4 percentage of total, the “Cell Cycle Distribution, S” value (L1210 cells; L1210, 100 μM, 12 h) was 22.4 percentage of total and the “Cell Cycle Distribution, sub G1” value (L1210 cells; L1210, 100 μM, 12 h) was 0.6 percentage of total. The “Cell Cycle Distribution, G1” value (L1210 cells; L1210, 250 μM, 12 h) was 46.7 percentage of total, the “Cell Cycle Distribution, G2 + M” value (L1210 cells; L1210, 250 μM, 12 h) was 36.7 percentage of total and the “Cell Cycle Distribution, S” value (L1210 cells; L1210, 250 μM, 12 h) was 14.3 percentage of total. For the same molecule, the “Cell Cycle Distribution, sub G1” value (L1210 cells; L1210, 250 μM, 12 h) was 2.4 percentage of total, the “Cell Cycle Distribution, G1” value (L1210 cells; L1210, 500 μM, 12 h) was 26.3 percentage of total and the “Cell Cycle Distribution, G2 + M” value (L1210 cells; L1210, 500 μM, 12 h) was 60.0 percentage of total. The “Cell Cycle Distribution, S” value (L1210 cells; L1210, 500 μM, 12 h) was 10.1 percentage of total, the “Cell Cycle Distribution, sub G1” value (L1210 cells; L1210, 500 μM, 12 h) was 3.9 percentage of total and the Cell cycle remark (L1210 cells; L1210, 500 μM, 12 h) was “G2 arrest”. The “Cell cycle response” value (L1210 cells; L1210, 12 h exposure) was “G2 arrest”, the “Cell Cycle Distribution, G1” value (HT29 cells [1]; HT29, 50 μM) was 45.3 percentage of total and the “Cell Cycle Distribution, G2 + M” value (HT29 cells [1]; HT29, 50 μM) was 37.1 percentage of total. For the same molecule, the “Cell Cycle Distribution, S” value (HT29 cells [1]; HT29, 50 μM) was 7.6 percentage of total, the “Cell Cycle Distribution, sub G1” value (HT29 cells [1]; HT29, 50 μM) was 9.4 percentage of total and the “Cell Cycle Distribution, G1” value (HT29 cells [1]; HT29, 100 μM) was 49.8 percentage of total. The “Cell Cycle Distribution, G2 + M” value (HT29 cells [1]; HT29, 100 μM) was 37.6 percentage of total, the “Cell Cycle Distribution, S” value (HT29 cells [1]; HT29, 100 μM) was 8.2 percentage of total and the “Cell Cycle Distribution, sub G1” value (HT29 cells [1]; HT29, 100 μM) was 3.6 percentage of total. The “Cell Cycle Distribution, G1” value (HT29 cells [1]; HT29, 250 μM) was 41.4 percentage of total, the “Cell Cycle Distribution, G2 + M” value (HT29 cells [1]; HT29, 250 μM) was 42.5 percentage of total and the “Cell Cycle Distribution, S” value (HT29 cells [1]; HT29, 250 μM) was 11.2 percentage of total. For the same molecule, the “Cell Cycle Distribution, sub G1” value (HT29 cells [1]; HT29, 250 μM) was 4.2 percentage of total, the Cell cycle remark (HT29 cells [1]; HT29, 250 μM) was “G2 arrest” and the “Cell Cycle Distribution, G1” value (HT29 cells [1]; HT29, 500 μM) was 44.5 percentage of total. For the same molecule, the “Cell Cycle Distribution, G2 + M” value (HT29 cells [1]; HT29, 500 μM) was 33.6 percentage of total, the “Cell Cycle Distribution, S” value (HT29 cells [1]; HT29, 500 μM) was 15.4 percentage of total and the “Cell Cycle Distribution, sub G1” value (HT29 cells [1]; HT29, 500 μM) was 5.2 percentage of total. For the same molecule, the Cell cycle remark (HT29 cells [1]; HT29, 500 μM) was “S-phase↑”, the “Cell Cycle Distribution, G1” value (HCT116 cells [2]; HCT116, 50 μM, 12 h) was 47.2 percentage of total and the “Cell Cycle Distribution, G2 + M” value (HCT116 cells [2]; HCT116, 50 μM, 12 h) was 37.4 percentage of total. The “Cell Cycle Distribution, S” value (HCT116 cells [2]; HCT116, 50 μM, 12 h) was 13.8 percentage of total, the “Cell Cycle Distribution, sub G1” value (HCT116 cells [2]; HCT116, 50 μM, 12 h) was 1.3 percentage of total and the “Cell Cycle Distribution, G1” value (HCT116 cells [2]; HCT116, 100 μM, 12 h) was 47.2 percentage of total. The “Cell Cycle Distribution, G2 + M” value (HCT116 cells [2]; HCT116, 100 μM, 12 h) was 34.5 percentage of total, the “Cell Cycle Distribution, S” value (HCT116 cells [2]; HCT116, 100 μM, 12 h) was 16.0 percentage of total and the “Cell Cycle Distribution, sub G1” value (HCT116 cells [2]; HCT116, 100 μM, 12 h) was 1.7 percentage of total. For the same molecule, the “Cell Cycle Distribution, G1” value (HCT116 cells [2]; HCT116, 250 μM, 12 h) was 52.8 percentage of total, the “Cell Cycle Distribution, G2 + M” value (HCT116 cells [2]; HCT116, 250 μM, 12 h) was 34.3 percentage of total and the “Cell Cycle Distribution, S” value (HCT116 cells [2]; HCT116, 250 μM, 12 h) was 11.1 percentage of total. For the same molecule, the “Cell Cycle Distribution, sub G1” value (HCT116 cells [2]; HCT116, 250 μM, 12 h) was 1.4 percentage of total, the “Cell Cycle Distribution, G1” value (HCT116 cells [2]; HCT116, 500 μM, 12 h) was 39.4 percentage of total and the “Cell Cycle Distribution, G2 + M” value (HCT116 cells [2]; HCT116, 500 μM, 12 h) was 46.5 percentage of total. The “Cell Cycle Distribution, S” value (HCT116 cells [2]; HCT116, 500 μM, 12 h) was 11.3 percentage of total, the “Cell Cycle Distribution, sub G1” value (HCT116 cells [2]; HCT116, 500 μM, 12 h) was 2.5 percentage of total and the Cell cycle remark (HCT116 cells [2]; HCT116, 500 μM, 12 h) was “G2 arrest”. For the same molecule, the “Cell cycle response” value (HCT116 cells [2]; HCT116, 12 h exposure) was “G2 arrest”, the IC50 (HL60 cells) was 177 ± 3 µM and the IC50 (HT29 cells [3]) was 183 ± 20 µM. The IC50 (WiDr cells) was 198 ± 53 µM, the IC50 (143B cells) was 248 ± 29 µM and the IC50 (HCT116 cells [4]) was 160 ± 10 µM. It also gave an IC50 (ADDP cells) of 183 ± 17 µM and an IC50 (SW480 cells) of 155 ± 9 µM.
